Experimental data: patent US20200155607A1, “Enriched Cellular Compositions and Therapeutic Use” (Abraham J and Phyllis Katz Cord Blood Foundation, priority 2017, published 2020)

System: human dermal fibroblast
Assay: Fibroblast proliferation by MTT assay
Format: cell-based
Settings: mitomycin c 10 or 25 μg/ml for 30 or 60 min; MTT at 17 hrs
Description: The results from two different studies investigating the effect of mitomycin c on human dermal fibroblast proliferation are shown in FIGS. 5A-5B. Fibroblast cells were plated out in complete media and then treated with mitomycin c (10 μg/ml or 25 μg/ml) for 30 or 60 min. Mitomcyin c was washed out and starvation media was added. Positive controls are 10% FBS and FGF (25 ng/ml). The ODs from the blank wells were subtracted out. Proliferation was measured by MTT assay at 17 hrs.

CO[C@@]12[C@H](COC(N)=O)C3=C(C(=O)C(C)=C(N)C3=O)N1C[C@@H]1N[C@@H]12 [Mitomycin c, mitomycin c]
fibroblast proliferation (MTT): appears to inhibit fibroblast proliferation
